Experimental data: the supplement of paper PMC10307832

Columns and labels:
Test in all cases: relative viability (nuclei count vs DMSO), 5 days (fraction); higher = more cells survive
[1] = compound: CCN1C(=O)C2=CC(=C(N=C2N(C1=O)C3CC3)N)C(=O)N + CCNC(=O)c1noc(-c2cc(C(C)C)c(O)cc2O)c1-c1ccc(CN2CCOCC2)cc1 [Luminespib] (partner 0.01 µM)
Procedure, shortened: (§1)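 Lung cancer cell lines in 1536-well plates got either a single drug or a fixed anchor-drug dose together with five library-drug doses (not always all listed) in √10 steps, by pin tool, on the day after seeding. Nuclei were counted after 5 days, and relative viability is the treated-to-vehicle ratio of nuclei counts. Values are medians of duplicate plates.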

[2] = compound: CCN1C(=O)C2=CC(=C(N=C2N(C1=O)C3CC3)N)C(=O)N + COc1cc2c(Oc3ccc(NC(=O)C4(C(=O)Nc5ccc(F)cc5)CC4)cc3F)ccnc2cc1OCCCN1CCOCC1 [Foretinib] (partner 0.25 µM)
Procedure, shortened: as §1

[3] = compound: CCN1C(=O)C2=CC(=C(N=C2N(C1=O)C3CC3)N)C(=O)N + COc1cccc2cc(-c3nc([C@H]4CC[C@H](C(=O)O)CC4)n4ncnc(N)c34)[nH]c12 [OSI-027] (partner 0.5 µM)
Procedure, shortened: as §1

[4] = compound: CCN1C(=O)C2=CC(=C(N=C2N(C1=O)C3CC3)N)C(=O)N + Nc1ncn([C@H]2C[C@H](O)[C@@H](CO)O2)c(=O)n1 [Decitabine] (partner 2 µM)
Procedure, shortened: as §1

[5] = compound: CCN1C(=O)C2=CC(=C(N=C2N(C1=O)C3CC3)N)C(=O)N + Cc1nc(NC(=O)N2CCC[C@H]2C(N)=O)sc1-c1ccnc(C(C)(C)C(F)(F)F)c1 [Alpelisib] (partner 2 µM)
Procedure, shortened: as §1

Cell Line	relative viability ([1]; first compound 0.253 µM)	relative viability ([1]; first compound 0.8 µM)	relative viability ([1]; first compound 2.53 µM)	relative viability ([1]; first compound 8 µM)	relative viability ([2]; first compound 0.253 µM)	relative viability ([2]; first compound 0.8 µM)	relative viability ([2]; first compound 2.53 µM)	relative viability ([2]; first compound 8 µM)	relative viability ([3]; first compound 0.253 µM)	relative viability ([3]; first compound 0.8 µM)	relative viability ([3]; first compound 2.53 µM)	relative viability ([3]; first compound 8 µM)	relative viability ([4]; first compound 0.253 µM)	relative viability ([4]; first compound 0.8 µM)	relative viability ([4]; first compound 2.53 µM)	relative viability ([4]; first compound 8 µM)	relative viability ([5]; first compound 0.253 µM)	relative viability ([5]; first compound 0.8 µM)	relative viability ([5]; first compound 2.53 µM)	relative viability ([5]; first compound 8 µM)
ChaGo-K-1	0.541	0.508	0.636	0.53	0.873	0.97	0.895	0.948	0.516	0.518	0.683	0.502	0.529	0.555	0.489	0.449	–	–	–	–
NCI-H2342	0.756	0.761	0.747	0.784	1.08	0.941	1.1	1.03	0.612	0.568	0.704	0.524	0.642	0.729	0.701	0.766	–	–	–	–
SK-MES-1	0.774	0.591	0.793	0.945	0.946	0.876	0.94	0.837	0.626	0.564	0.588	0.583	0.381	0.359	0.4	0.365	0.865	0.917	0.85	0.962
LCLC-97TM1	0.678	0.845	0.766	0.799	0.869	0.866	0.86	1.1	0.466	0.371	0.441	0.56	0.207	0.225	0.244	0.262	0.258	–	–	0.275
NCI-H2170	0.686	0.879	0.716	0.746	1.02	1	0.954	0.989	0.278	0.707	0.72	0.664	0.495	0.488	0.462	0.404	0.908	0.789	0.734	0.809
NCI-H1993	1.78	0.877	0.612	0.832	0.819	0.751	0.625	0.822	0.578	0.558	0.523	0.534	0.677	0.586	0.555	0.701	0.651	0.7	0.611	0.669
NCI-H460	0.0334	0.0279	0.0363	0.037	0.992	1.04	0.979	0.943	0.586	0.599	0.577	0.547	0.454	0.462	0.524	0.301	0.471	0.433	0.467	0.466
NCI-H1975	0.167	0.283	0.222	0.276	1.02	0.916	0.895	0.951	0.809	0.697	0.604	0.536	0.352	0.401	0.388	0.365	0.635	0.653	0.614	0.619
SW 1573	0.191	0.377	0.303	0.427	0.978	0.762	0.832	0.933	0.534	0.612	0.675	0.587	0.573	0.582	0.434	0.476	0.731	0.844	0.644	0.849
CAL-12T	0.294	0.792	0.193	0.436	1.09	1.18	1.09	1.01	0.689	0.478	0.543	0.512	–	–	–	–	1.07	1.07	0.964	1.21
NCI-H1792	0.586	0.4	0.541	0.419	–	–	–	–	0.69	0.696	0.733	0.651	0.652	0.54	0.494	0.576	0.777	0.687	0.759	0.774
HCC-366	–	–	–	–	–	0.91	0.951	0.919	–	0.938	0.877	0.743	0.294	0.346	0.341	0.284	0.442	0.505	0.456	0.468
HCC-44	0.934	0.905	1.17	1.04	–	–	–	–	0.568	0.446	0.527	0.421	0.999	0.999	0.885	0.872	0.829	0.802	0.778	0.784
NCI-H1703	–	–	–	–	0.393	0.432	0.328	0.372	–	–	–	–	–	–	–	–	0.339	0.342	0.31	0.368
NCI-H1650	0.185	0.196	0.162	0.186	0.913	1.15	0.955	1.12	0.577	0.444	0.629	0.544	0.351	0.404	0.43	0.401	–	–	–	–
HCC-78	–	–	–	–	0.532	–	0.582	0.502	0.434	–	0.354	0.387	0.681	0.636	0.726	0.639	0.299	0.337	0.31	0.467
NCI-H522	1.19	0.977	1.12	1.05	–	–	–	–	0.715	0.623	0.647	0.722	0.56	0.73	0.748	0.723	–	–	–	–
SW 900	0.217	0.193	0.174	0.166	1.03	0.996	0.837	1.03	0.568	0.531	0.475	0.731	0.347	0.511	0.49	0.443	–	–	–	–
NCI-H2228	0.132	0.167	0.203	0.11	0.95	0.982	0.82	0.839	0.557	0.674	0.633	0.645	–	–	–	–	0.622	0.669	0.709	1.16
